Experimental findings from the NIST ThermoML archive (doi:10.1016/j.tca.2012.05.004) are described below.

The conditions of this series: 101.33 kPa, Liquid, Vibrating tube method.

The structures appear in SMILES notation. ± gives the expanded uncertainty stated by the source.

As to `ClCCCl` [1,2-dichloroethane], the mass density (288.15 K) is 1259.99 ± 0.58 kg/m3; the mass density (293.15 K) worked out at 1252.77 ± 0.57 kg/m3; the mass density (298.15 K) is recorded as 1245.49 ± 0.56 kg/m3; the mass density (303.15 K) is reported as 1238.18 ± 0.56 kg/m3; the mass density (308.15 K) was 1230.84 ± 0.55 kg/m3; the mass density (313.15 K) amounted to 1223.46 ± 0.54 kg/m3.
Consider `CCCCC(C)O` (stereo unspecified) [2-hexanol], for which the mass density was 818.064 ± 0.3 kg/m3 (288.15 K); 814.174 ± 0.3 kg/m3 (293.15 K); 810.227 ± 0.31 kg/m3 (298.15 K); 806.225 ± 0.31 kg/m3 (303.15 K); 802.16 ± 0.31 kg/m3 (308.15 K); 798.04 ± 0.31 kg/m3 (313.15 K).
For the compound `CCCCCCC(C)O` (stereo unspecified) [2-octanol], the mass density was found to be 824.028 ± 0.3 kg/m3 (288.15 K); 820.313 ± 0.3 kg/m3 (293.15 K); 816.559 ± 0.3 kg/m3 (298.15 K); 812.768 ± 0.3 kg/m3 (303.15 K); 808.94 ± 0.31 kg/m3 (308.15 K); 805.079 ± 0.31 kg/m3 (313.15 K).
For the compound `CCC(C)O` (stereo unspecified) [butan-2-ol], the mass density runs as follows: (288.15 K) 810.879 ± 0.3 kg/m3; (293.15 K) 806.837 ± 0.31 kg/m3; (298.15 K) 802.716 ± 0.31 kg/m3; (303.15 K) 798.513 ± 0.31 kg/m3; (308.15 K) 794.218 ± 0.31 kg/m3; (313.15 K) 789.832 ± 0.31 kg/m3.
Take `CCCC(C)O` (stereo unspecified) [pentan-2-ol]: the mass density came to 813.272 ± 0.3 kg/m3 (288.15 K); 809.305 ± 0.31 kg/m3 (293.15 K); 805.27 ± 0.31 kg/m3 (298.15 K); 801.157 ± 0.31 kg/m3 (303.15 K); 796.97 ± 0.31 kg/m3 (308.15 K); 792.702 ± 0.31 kg/m3 (313.15 K).
`CC(C)O` [propan-2-ol]: the mass density is, setting by setting: (288.15 K) 789.337 ± 0.31 kg/m3; (293.15 K) 785.198 ± 0.31 kg/m3; (298.15 K) 780.987 ± 0.31 kg/m3; (303.15 K) 776.718 ± 0.31 kg/m3; (308.15 K) 772.371 ± 0.31 kg/m3; (313.15 K) 767.935 ± 0.31 kg/m3.

Usually mass density stands for mass per unit of volume.
